Results published in ChEMBL document CHEMBL6182871, “Discovery of 4-((quinolin-8-ylthio)methyl)benzamide derivatives as a new class of SARS-CoV-2 nsp13 inhibitors” (Bioorg Med Chem Lett, 2025).

How the values were obtained:
[1] = molecular target: T1, Replicase polyprotein 1ab (Severe acute respiratory syndrome coronavirus 2, UniProt P0DTD1); test: Inhibition of SARS-CoV-2 nsp13 by FRET assay
[2] = molecular target: T1, Replicase polyprotein 1ab; test: Binding affinity to SARS-CoV-2 nsp13 assessed as dissociation constant by MST assay

| Compound | IC50 [1] [nM] | Kd [2] [nM] |
| --- | --- | --- |
| O=C(N/N=C/c1cc([N+](=O)[O-])ccc1Cl)c1ccc(COc2cccc3ccccc23)cc1 | > 10000 |  |
| O=C(N/N=C/c1cc([N+](=O)[O-])ccc1Cl)c1ccc(CSc2ccnc3ccccc23)cc1 | 760 |  |
| O=C(N/N=C/c1cc([N+](=O)[O-])ccc1Cl)c1ccc(CNc2cccc3ccccc23)cc1 | > 10000 |  |
| COc1cc(/C=N/NC(=O)c2ccc(CSc3cccc4cccnc34)cc2)ccc1O | 9190 |  |
| CSc1nnc(SCc2ccc(C(=O)N/N=C/c3cc([N+](=O)[O-])ccc3Cl)cc2)s1 | > 10000 |  |
| COc1ccc(/C=N/NC(=O)c2ccc(CSc3cccc4cccnc34)cc2)c(O)c1 | 5440 |  |
| O=C(N/N=C/c1ccc(F)nc1)c1ccc(CSc2cccc3cccnc23)cc1 | 660 |  |
| O=C(N/N=C/c1ccc(Cl)nc1)c1ccc(CSc2cccc3cccnc23)cc1 | 5100 |  |
| COc1ccc(/C=N/NC(=O)c2ccc(CSc3cccc4cccnc34)cc2)cc1OC | 4970 |  |
| O=C(N/N=C/c1cc([N+](=O)[O-])ccc1Cl)c1ccc(CSc2cccc3ccccc23)cc1 | > 10000 |  |
| O=C(N/N=C/c1cc2c(cc1[N+](=O)[O-])OCO2)c1ccc(CSc2cccc3cccnc23)cc1 | 430 |  |
| O=C(N/N=C/c1cc([N+](=O)[O-])ccc1Cl)c1ccc(CSc2ccccc2Br)cc1 | > 10000 |  |
| C/C(=N\NC(=O)c1ccc(CSc2cccc3cccnc23)cc1)c1ccc(F)nc1 | > 10000 |  |
| Cn1cc(/C=N/NC(=O)c2ccc(CSc3cccc4cccnc34)cc2)cn1 | 26800 | 46100 |
| O=C(N/N=C/c1cccc(F)c1O)c1ccc(CSc2cccc3cccnc23)cc1 | 2980 |  |
| CC(C)NC(=O)c1ccc(/C=N/NC(=O)c2ccc(CSc3cccc4cccnc34)cc2)cc1 | 940 |  |
| O=C(N/N=C/c1cc(F)c(F)cc1O)c1ccc(CSc2cccc3cccnc23)cc1 | 2340 |  |
| O=C(N/N=C/c1ncccn1)c1ccc(CSc2cccc3cccnc23)cc1 | > 10000 |  |
| O=C(N/N=C/c1cc(O)c(Br)c(O)c1)c1ccc(CSc2cccc3cccnc23)cc1 | 2060 |  |
| O=C(N/N=C/c1ccc(Br)o1)c1ccc(CSc2cccc3cccnc23)cc1 | > 10000 |  |
| O=C(N/N=C/c1cccc2ccncc12)c1ccc(CSc2cccc3cccnc23)cc1 | 4330 |  |
| O=C(N/N=C/c1cc2ccncc2[nH]1)c1ccc(CSc2cccc3cccnc23)cc1 | > 10000 |  |
| O=C(N/N=C/c1ccc(F)cc1)c1ccc(CSc2cccc3cccnc23)cc1 | 2570 |  |
| O=C(N/N=C/c1c(O)ccc2ccccc12)c1ccc(CSc2cccc3cccnc23)cc1 | 3920 |  |
| O=C(N/N=C/c1c(Cl)ccnc1Cl)c1ccc(CSc2cccc3cccnc23)cc1 | 480 |  |
| COc1cc(F)ccc1/C=N/NC(=O)c1ccc(CSc2cccc3cccnc23)cc1 | 2850 |  |
| O=C(N/N=C/c1ccc(F)cc1O)c1ccc(CSc2cccc3cccnc23)cc1 | 2700 |  |
| O=C(N/N=C/c1cc([N+](=O)[O-])ccc1Cl)c1ccc(CSc2cccc3cccnc23)cc1 | 280 |  |
| O=C(N/N=C/c1c(Cl)nc(Cl)nc1Cl)c1ccc(CSc2cccc3cccnc23)cc1 | 2940 |  |
| COc1ccc(/C=N/NC(=O)c2ccc(CSc3cccc4cccnc34)cc2)cc1 | 960 |  |
